The target in data set [1] is T1, Protein cereblon/Bcl-2-like protein 1 (Homo sapiens, UniProt Q07817+Q96SW2). In words: Protac activity at CRBN/BCL-XL in human MOLT-4 cells assessed as induction of BCL-XL degradation at 33 to 1000 nM measured after 16 hrs by immunoblotting analysis. To be noted: dose 33-1000 nM. The data set is classed as cell-based.
Target sequence in this assay (Q07817 whole entry, looked up): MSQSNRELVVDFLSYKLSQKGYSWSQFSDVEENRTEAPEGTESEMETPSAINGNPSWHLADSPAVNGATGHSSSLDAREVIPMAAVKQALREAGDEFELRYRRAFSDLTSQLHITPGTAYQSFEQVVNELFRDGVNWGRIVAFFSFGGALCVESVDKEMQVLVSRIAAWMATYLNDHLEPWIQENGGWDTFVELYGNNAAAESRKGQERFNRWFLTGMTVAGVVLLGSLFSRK
Target sequence in this assay (Q96SW2 whole entry, looked up): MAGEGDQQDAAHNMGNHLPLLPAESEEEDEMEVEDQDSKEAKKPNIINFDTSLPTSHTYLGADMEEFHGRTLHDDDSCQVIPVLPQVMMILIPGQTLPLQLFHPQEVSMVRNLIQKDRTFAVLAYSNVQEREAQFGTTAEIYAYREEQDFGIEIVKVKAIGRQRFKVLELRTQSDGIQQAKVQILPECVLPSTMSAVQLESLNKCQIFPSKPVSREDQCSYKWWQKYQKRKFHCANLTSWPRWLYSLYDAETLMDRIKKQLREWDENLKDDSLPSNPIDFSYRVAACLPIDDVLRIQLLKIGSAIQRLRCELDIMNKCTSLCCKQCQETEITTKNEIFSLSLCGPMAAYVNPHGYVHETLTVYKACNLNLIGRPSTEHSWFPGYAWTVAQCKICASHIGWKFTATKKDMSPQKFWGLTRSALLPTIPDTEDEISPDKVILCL
Data set [2] has as its system MOLT-4. In words: Induction of apoptosis in human MOLT-4 cells assessed as late apoptotic cells at 100 nM measured after 48 hrs by Alexa Fluor 647-Annexin V/propidium iodide staining based flow cytometry (reference value: 1.1 to 1.4%). It is filed as functional.
For data set [3], the system named is MOLT-4. In words: Induction of apoptosis in human MOLT-4 cells assessed as viable cells at 100 nM measured after 48 hrs in presence of pan-caspase inhibitor QVD by Alexa Fluor 647-Annexin V/propidium iodide staining based flow cytometry (reference value: 97.1 to 97.3%). The data set is classed as functional. To be noted: read-out: Activity.
For data set [4], the system named is MOLT-4. In words: Induction of apoptosis in human MOLT-4 cells assessed as early apoptotic cells at 100 nM measured after 48 hrs by Alexa Fluor 647-Annexin V/propidium iodide staining based flow cytometry (reference value: 1.5 to 1.7%). It is filed as functional.
Data set [5] relates to MOLT-4. In words: Induction of apoptosis in human MOLT-4 cells assessed as viable cells at 10 nM measured after 48 hrs by Alexa Fluor 647-Annexin V/propidium iodide staining based flow cytometry (reference value: 97.1 to 97.3%). The data set is classed as functional. To be noted: read-out: Activity.
A further data set concerns NCI-H146. In words: Antiproliferative activity against human NCI-H146 cells assessed as reduction in cell viability measured after 48 hrs by MTS assay. It is filed as functional, cell-based. The settings on record: NCI-H146, 48 h.
Data set [6] has as its system MOLT-4. In words: Induction of apoptosis in human MOLT-4 cells assessed as viable cells at 100 nM measured after 48 hrs by Alexa Fluor 647-Annexin V/propidium iodide staining based flow cytometry (reference value: 97.1 to 97.3%). It is filed as functional. The settings on record: read-out: Activity.
Data set [7] has as its system MOLT-4. In words: Induction of apoptosis in human MOLT-4 cells assessed as late apoptotic cells at 100 nM measured after 48 hrs in presence of pan-caspase inhibitor QVD by Alexa Fluor 647-Annexin V/propidium iodide staining based flow cytometry (reference value: 1.1 to 1.4%). It is filed as functional.
The test system of data set [8] is MOLT-4. In words: Induction of apoptosis in human MOLT-4 cells assessed as necrotic cells at 100 nM measured after 48 hrs by Alexa Fluor 647-Annexin V/propidium iodide staining based flow cytometry (reference value: 0.3 to 0.4%). It is filed as functional.
For data set [9], the system named is MOLT-4. In words: Induction of apoptosis in human MOLT-4 cells assessed as late apoptotic cells at 10 nM measured after 48 hrs by Alexa Fluor 647-Annexin V/propidium iodide staining based flow cytometry (reference value: 1.1 to 1.4%). It is filed as functional.
Data set [10] has as its system MOLT-4. In words: Induction of apoptosis in human MOLT-4 cells assessed as necrotic cells at 10 nM measured after 48 hrs by Alexa Fluor 647-Annexin V/propidium iodide staining based flow cytometry (reference value: 0.3 to 0.4%). The data set is classed as functional.
In another data set the test system is RS4-11. In words: Antiproliferative activity against human RS4-11 cells assessed as reduction in cell viability measured after 48 hrs by MTS assay. The data set is classed as functional, cell-based. The settings on record: RS4-11, 48 h.
In data set [11] the test system is MOLT-4. In words: Induction of apoptosis in human MOLT-4 cells assessed as necrotic cells at 100 nM measured after 48 hrs in presence of pan-caspase inhibitor QVD by Alexa Fluor 647-Annexin V/propidium iodide staining based flow cytometry (reference value: 0.3 to 0.4%). It is filed as functional.
The test system of data set [12] is MOLT-4. In words: Induction of apoptosis in human MOLT-4 cells assessed as early apoptotic cells at 100 nM measured after 48 hrs in presence of pan-caspase inhibitor QVD by Alexa Fluor 647-Annexin V/propidium iodide staining based flow cytometry (reference value: 1.5 to 1.7%). The data set is classed as functional.
Data set [13] can be described thus: Toxicity in human platelet assessed as reduction in cell viability measured after 48 hrs by MTS assay. It is filed as tissue-based. To be noted: human platelets.
Data set [14] has as its system MOLT-4. In words: Antiproliferative activity against human MOLT-4 cells assessed as reduction in cell viability measured after 48 hrs by MTS assay. It is filed as functional, cell-based. To be noted: MOLT-4, 48 h.
Data set [15] concerns MOLT-4. In words: Induction of apoptosis in human MOLT-4 cells assessed as early apoptotic cells at 10 nM measured after 48 hrs by Alexa Fluor 647-Annexin V/propidium iodide staining based flow cytometry (reference value: 1.5 to 1.7%). The data set is classed as functional.
Data set [16] is described as follows: Selectivity index, ratio of IC50 for human platelet to IC50 for human MOLT-4 cells.
The target in data set [17] is Protein cereblon/Apoptosis regulator Bcl-2 (Homo sapiens) (UniProt P10415+Q96SW2). In words: Protac activity at CRBN/BCL2 in human MOLT-4 cells assessed as induction of BCL2 degradation at 50 nM measured after 16 hrs by immunoblotting analysis. The data set is classed as cell-based.
Sequence of Protein cereblon/Apoptosis regulator Bcl-2 (Homo sapiens) (P10415 whole entry, looked up): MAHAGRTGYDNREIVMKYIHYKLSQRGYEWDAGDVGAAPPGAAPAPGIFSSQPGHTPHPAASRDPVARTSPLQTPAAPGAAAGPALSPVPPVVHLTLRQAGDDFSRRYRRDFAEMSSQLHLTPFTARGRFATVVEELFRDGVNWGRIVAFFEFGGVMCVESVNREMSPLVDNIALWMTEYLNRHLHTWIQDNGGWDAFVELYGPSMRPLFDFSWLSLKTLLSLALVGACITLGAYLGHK
Sequence of Protein cereblon/Apoptosis regulator Bcl-2 (Homo sapiens) (Q96SW2 whole entry, looked up): as the sequence (Q96SW2 whole entry, looked up) above
Data set [18] deals with T1, Protein cereblon/Bcl-2-like protein 1. In words: Protac activity at CRBN/BCL-XL in human MOLT-4 cells assessed as induction of BCL-XL degradation measured after 16 hrs by immunoblotting analysis. The data set is classed as cell-based.
Target sequence in this assay (Q07817 whole entry): as the sequence (Q07817 whole entry, looked up) above
Target sequence in this assay (Q96SW2 whole entry): as the sequence (Q96SW2 whole entry, looked up) above
Data set [19] shares this target. In words: Protac activity at CRBN/BCL-XL in human MOLT-4 cells assessed as induction of BCL-XL degradation by measuring remaining BCL-XL level at 50 nM measured after 16 hrs by immunoblotting analysis relative to control. The data set is classed as cell-based.
Target sequence in this assay (Q07817 whole entry, looked up): as the sequence (Q07817 whole entry, looked up) above
Target sequence in this assay (Q96SW2 whole entry, looked up): as the sequence (Q96SW2 whole entry, looked up) above
In data set [20] the test system is MOLT-4. In words: Potency index, ratio of ABT-263 IC50 to test compound IC50 for antiproliferative activity against human MOLT-4 cells assessed as reduction in cell viability measured after 48 hrs by MTS assay. The data set is classed as functional.
In data set [21] the target is T2, von Hippel-Lindau disease tumor suppressor/Bcl-2-like protein 1 (Homo sapiens, UniProt Q07817+P40337). In words: Protac activity at VHL/BCL-XL in human MOLT-4 cells assessed as induction of BCL-XL degradation by measuring remaining BCL-XL level at 100 nM measured after 16 hrs by immunoblotting analysis relative to control. The data set is classed as cell-based.
Target sequence in this assay (P40337 whole entry, looked up): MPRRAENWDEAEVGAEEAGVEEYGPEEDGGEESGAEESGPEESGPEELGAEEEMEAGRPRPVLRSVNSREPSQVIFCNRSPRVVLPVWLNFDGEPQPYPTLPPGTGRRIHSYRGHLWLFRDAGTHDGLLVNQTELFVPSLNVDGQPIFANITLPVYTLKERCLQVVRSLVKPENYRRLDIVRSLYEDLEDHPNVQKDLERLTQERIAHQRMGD
Target sequence in this assay (Q07817 whole entry, looked up): as the sequence (Q07817 whole entry, looked up) above

Data set [22] addresses von Hippel-Lindau disease tumor suppressor/Apoptosis regulator Bcl-2 (Homo sapiens) (UniProt P10415+P40337). In words: Protac activity at VHL/BCL2 in human MOLT-4 cells assessed as induction of BCL2 degradation at 100 nM measured after 16 hrs by immunoblotting analysis. It is filed as cell-based.
Data set [23] concerns the target T2, von Hippel-Lindau disease tumor suppressor/Bcl-2-like protein 1. In words: Protac activity at VHL/BCL-XL in human MOLT-4 cells assessed as induction of BCL-XL degradation measured after 16 hrs by immunoblotting analysis. It is filed as cell-based.
Target sequence in this assay (Q07817 whole entry): as the sequence (Q07817 whole entry, looked up) above
Target sequence in this assay (P40337 whole entry): as the sequence (P40337 whole entry, looked up) above

Active and inactive are the calls of the source. The rule behind the calls is not given here.

Sequence of von Hippel-Lindau disease tumor suppressor/Apoptosis regulator Bcl-2 (Homo sapiens) (P10415 whole entry, looked up): as the sequence (P10415 whole entry, looked up) above
Sequence of von Hippel-Lindau disease tumor suppressor/Apoptosis regulator Bcl-2 (Homo sapiens) (P40337 whole entry, looked up): as the sequence (P40337 whole entry, looked up) above

With `CN(CCOCCOCCOCCNc1cccc2c1C(=O)N([C@@H]1CCC(=O)N(C)C1=O)C2=O)CC[C@H](CSc1ccccc1)Nc1ccc(S(=O)(=O)NC(=O)c2ccc(N3CCN(CC4=C(c5ccc(Cl)cc5)CCC(C)(C)C4)CC3)cc2)cc1S(=O)(=O)C(F)(F)F`, the result in data set [1] was inactive.
With `CN(C)CC[C@H](CSc1ccccc1)Nc1ccc(S(=O)(=O)NC(=O)c2ccc(N3CCN(Cc4ccccc4-c4ccc(Cl)cc4)CC3)cc2)cc1[N+](=O)[O-]` [ABT 737], the Activity is 11.6% in the data set on MOLT-4 [2]; 47.4% in the data set with MOLT-4 [4]; 8.6% in the data set with MOLT-4 [7]; 0.4% with MOLT-4 [8]; 1.4% with MOLT-4 [9]; 0.1% in the data set with MOLT-4 [10]. Besides, the values for the Activity with MOLT-4 [11], in the data set on MOLT-4 [12] and with MOLT-4 [15] were 5.4%, 2.6% and 2.5%, respectively. The viability at 0.1 µM with MOLT-4 [3] is 83.1%; with MOLT-4 [6] it was 40.7%. In addition, the viability at 0.01 µM in the data set on MOLT-4 [5] came to 96%. Besides, the IC50 was determined as 43.8 nM in the data set with NCI-H146, 49 nM with RS4-11 and 227 nM with MOLT-4 [14]. Also, the IC50 at 48 h in data set [13] amounted to 242 nM. For the same compound, in data set [16], the “Ratio IC50” value was 1.1.
As to `CC1(C)CCC(c2ccc(Cl)cc2)=C(CN2CCN(c3ccc(C(=O)NS(=O)(=O)c4ccc(N[C@H](CCN5CCN(CCOCCOCCOCCNc6cccc7c6C(=O)N([C@@H]6CCC(=O)NC6=O)C7=O)CC5)CSc5ccccc5)c(S(=O)(=O)C(F)(F)F)c4)cc3)CC2)C1`, the outcome in [17] was inactive. Also, the values for the IC50 with NCI-H146, in the data set with RS4-11 and in the data set with MOLT-4 [14] were 24.6 nM, 38.5 nM and 17.3 nM, respectively. Besides, in [18], the DC50 came out at 4.5 nM. The IC50 at 48 h in data set [13] amounted to 1560 nM. The Activity in [19] turned out to be 5%. Moreover, the entries for the “Ratio IC50” value (in data set [16]; in the data set on MOLT-4 [20]) were 90 and 12, respectively.
Regarding `Cc1ncsc1-c1ccc([C@H](C)NC(=O)[C@@H]2C[C@@H](O)CN2C(=O)[C@@H](NC(=O)CCCCCC(=O)N2CCN(CC[C@H](CSc3ccccc3)Nc3ccc(S(=O)(=O)NC(=O)c4ccc(N5CCN(CC6=C(c7ccc(Cl)cc7)CCC(C)(C)C6)CC5)cc4)cc3S(=O)(=O)C(F)(F)F)CC2)C(C)(C)C)cc1` [DT-2216], the IC50 with NCI-H146 stood at 278 nM; in the data set on RS4-11, 213 nM; in the data set with MOLT-4 [14], 77.1 nM. Besides, the Activity in data set [21] came out at 14%. In addition, the result in data set [22] was inactive. The IC50 at 48 h in data set [13] is above 10000 nM. Also, in [16], the “Ratio IC50” value is given as above 130. Moreover, the DC50 in [23] was found to be 53 nM.
